Data from patent US8604044B2, “Quinazoline based EGFR inhibitors containing a zinc binding moiety” (Curis, Inc., priority 2006, dated 2013).

What was measured:
[1] = tested on: HDAC; assay: HDAC fluorimetric assay (HDAC enzymatic activity, HeLa nuclear extract); type: biochemical; settings: HeLa nuclear extract; read-out: HDAC IC50 grading
Experimental: HDAC inhibitors were screened using an HDAC fluorimetric assay kit (AK-500, Biomol, Plymouth Meeting, Pa.).
Each assay was setup as follows: Defrosted all kit components and kept on ice until use. […] Prepared dilutions of Trichostatin A (TSA, positive control) and tested compounds in assay buffer (5× of final concentration). Diluted Fluor de Lys™ Substrate in assay buffer to 100 uM (50 fold=2× final). Diluted Fluor de Lys™ developer concentrate 20-fold (e.g. 50 μl plus 950 μl Assay Buffer) in cold assay buffer. Second, diluted the 0.2 mM Trichostatin A 100-fold in the 1× Developer (e.g. 10 μl in 1 ml; final Trichostatin A concentration in the 1× Developer=2 μM; final concentration after addition to HDAC/Substrate reaction=1 μM). Added Assay buffer, diluted trichostatin A or test inhibitor to appropriate wells of the microtiter plate. Added diluted HeLa extract or other HDAC sample to all wells except for negative controls.

[2] = molecular target: T1, HER2 (Homo sapiens, UniProt P04626); assay: Radioisotope assay for HER2; type: biochemical; settings: read-out: HER2/ErB2 IC50 grading
T1 construct: human HER2 amino acids 679-1255; host or cells: baculovirus in Sf9 insect cells
Experimental: Protocol for Radioisotope Assay for HER2
10 nM HER2 and 0.1 mg/ml polyEY were placed in the reaction buffer and 2 mM MnCl2, 1 μM ATP and 1% DMSO final were added. The reaction mixture was incubated for 2 hours at room temperature.
MW=91.6 kDa. […] Enzyme is in 25 mM Tris-HCl, pH 8.0, 100 mM NaCl, 0.05% Tween-20, 50% glycerol, 10 mM reduced glutathione, and 3 mM DTT.

T1 sequence (P04626 679-1255): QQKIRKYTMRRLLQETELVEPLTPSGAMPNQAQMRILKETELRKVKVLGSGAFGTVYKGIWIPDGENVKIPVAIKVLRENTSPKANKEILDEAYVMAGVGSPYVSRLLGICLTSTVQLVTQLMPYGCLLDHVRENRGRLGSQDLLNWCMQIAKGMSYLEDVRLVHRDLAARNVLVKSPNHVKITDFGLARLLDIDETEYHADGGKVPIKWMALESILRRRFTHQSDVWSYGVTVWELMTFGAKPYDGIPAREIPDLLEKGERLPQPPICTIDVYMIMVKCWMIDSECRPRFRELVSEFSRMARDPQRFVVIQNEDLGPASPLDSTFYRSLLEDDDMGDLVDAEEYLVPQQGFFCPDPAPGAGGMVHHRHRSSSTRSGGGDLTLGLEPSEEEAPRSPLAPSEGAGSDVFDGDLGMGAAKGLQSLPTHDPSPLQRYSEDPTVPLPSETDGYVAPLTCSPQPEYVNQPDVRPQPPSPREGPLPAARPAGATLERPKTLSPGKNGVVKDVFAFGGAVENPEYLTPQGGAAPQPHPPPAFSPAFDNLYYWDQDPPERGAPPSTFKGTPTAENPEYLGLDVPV

Row | Structure (SMILES) | IC50 [1] [nM] | IC50 [2] [nM]
1 | COc1cc2ncnc(Nc3ccc(F)c(Cl)c3)c2cc1NC(=O)CCCC(=O)NO [Compound 38, N^1-(4-(3-chloro-4-fluorophenylamino)-7-methoxyquinazolin-6-yl)-N^5-hydroxyglutaramide] | 1000 to 10000 | 
2 | COc1cc2ncnc(Nc3ccc(F)c(Cl)c3)c2cc1OCCOc1ccc(/C=C/C(=O)NO)cc1 [Compound 66, (E)-3-(4-(2-(4-(3-chloro-4-fluorophenylamino)-7-methoxyquinazolin-6-yloxy)ethoxy)phenyl)-N-hydroxyacrylamide] | 100 to 1000 | 
3 | C[C@@H](Nc1ncnc2ccc(OCCCCCC(=O)NO)cc12)c1ccccc1 [Compound 78, (R)—N-hydroxy-6-(4-(1-phenylethylamino)-quinazolin-6-yloxy)hexanamide] | < 100 | 
4 | COc1cc2ncnc(N[C@H](C)c3ccc(Cl)cc3)c2cc1OCCCCCCC(=O)NO [Compound 82, (R)-7-(4-(1-(4-chlorophenyl)ethylamino)-7-methoxyquinazolin-6-yloxy)-N-hydroxyheptanamide] | 100 to 1000 | 
5 | COc1cc2ncnc(N[C@H](C)c3ccccc3)c2cc1OCCCCCC(=O)NO [Compound 77, (R)—N-hydroxy-6-(7-methoxy-4-(1-phenylethylamino)quinazolin-6-yloxy)-hexanamide] | < 100 | 
6 | C#Cc1cccc(Nc2ncnc3cc(OC)c(NC(=O)CCCCC(=O)NO)cc23)c1 [Compound 43, N^1-(4-(3-ethynylphenylamino)-7-methoxyquinazolin-6-yl)-N^6-hydroxyadipamide] | 100 to 1000 | 
7 | COc1cc2ncnc(Nc3ccc(F)c(Cl)c3)c2cc1-c1ccc(C#CCCC(=O)NO)o1 [Compound 124] | > 10000 | 
8 | COc1cc2ncnc(Nc3ccc(F)c(Cl)c3)c2cc1OCC(=O)NO [Compound 1, 2-(4-(3-Chloro-4-fluorophenylamino)-7-methoxyquinazolin-6-yloxy)-N-hydroxyacetamide] | > 10000 | 
9 | COc1cc2ncnc(Nc3ccc(F)c(Cl)c3)c2cc1OCCCCCC(=O)NO [Compound 5] | < 100 | 
10 | COc1cc2ncnc(Nc3ccc(F)c(Cl)c3)c2cc1Oc1ccc(C#CCCCC(=O)NO)cc1 [Compound 205] | 1000 to 10000 | 
11 | COc1cc2ncnc(Nc3ccc(F)c(Cl)c3)c2cc1C#CCCC(=O)NO [Compound 138] | 1000 to 10000 | 
12 | COc1cc2ncnc(NCc3cccc(Br)c3)c2cc1OCCCCCCC(=O)NO [Compound 89, 7-(4-(3-bromobenzylamino)-7-methoxyquinazolin-6-yloxy)-N-hydroxyheptanamide] | < 100 | 
13 | COc1cc2ncnc(Nc3ccc(F)c(Cl)c3)c2cc1OCCNCc1ccc(C#CC(=O)NO)cc1 [Compound 121] | > 10000 | 
14 | COc1ccc([C@@H](C)Nc2ncnc3cc(OC)c(OCCCCCCC(=O)NO)cc23)cc1 [Compound 83, (R)—N-hydroxy-7-(7-methoxy-4-(1-(4-methoxyphenyl)ethylamino)quinazolin-6-yloxy)-heptanamide] | < 100 | 
15 | COc1cc2ncnc(Nc3ccc(F)c(Cl)c3)c2cc1OCCN(CCO)CCCC(=O)NO [Compound 118] | 1000 to 10000 | 
16 | Nc1cc(Br)ccc1NC(=O)COc1ccc2ncnc(Nc3ccc(F)c(Cl)c3)c2c1 [Compound 45] | > 10000 | 
17 | COCCOc1cc2ncnc(Nc3ccc(F)c(Cl)c3)c2cc1NC(=O)CCCC(=O)NO [Compound 68, N^1-(4-(3-chloro-4-fluorophenylamino)-7-(2-methoxyethoxy)quinazolin-6-yl)-N^5-hydroxyglutaramide] | 1000 to 10000 | 
18 | O=C(CCOc1ccc2ncnc(Nc3ccc(F)c(Cl)c3)c2c1)NO [Compound 14] | 1000 to 10000 | 
19 | COCCOc1cc2ncnc(Nc3ccc(F)c(Cl)c3)c2cc1NC(=O)CCCCCCC(=O)NO [Compound 70, N^1-(4-(3-chloro-4-fluorophenylamino)-7-(2-methoxyethoxy)quinazolin-6-yl)-N^8-hydroxyoctanediamide] |  | < 100
20 | C#Cc1cccc(Nc2ncnc3cc(OC)c(NC(=O)CCCC(=O)NO)cc23)c1 [Compound 42, N^1-(4-(3-ethynylphenylamino)-7-methoxyquinazolin-6-yl)-N^5-hydroxyglutaramide] | 100 to 1000 | 
21 | COc1cc2ncnc(Nc3ccc(F)c(Cl)c3)c2cc1C#CCCCC(=O)NO [Compound 139, 6-(4-(3-chloro-4-fluorophenylamino)-7-methoxyquinazolin-6-yl)-N-hydroxyhex-5-ynamide] | 1000 to 10000 | 
22 | COc1cc2ncnc(Nc3ccc(F)c(Cl)c3)c2cc1-c1ccc(C#CCCCC(=O)NO)o1 [Compound 125] | 100 to 1000 | 
23 | C#Cc1cccc(Nc2ncnc3ccc(OCCCCCCC(=O)NO)cc23)c1 [Compound 24, 7-(4-(3-ethynylphenylamino)quinazolin-6-yloxy)-N-hydroxyheptanamide] | < 100 | 
24 | COc1cc2ncnc(Nc3ccc(F)c(Cl)c3)c2cc1OCCCCCCN(O)C(C)=O [Compound 103, N-(6-(4-(3-chloro-4-fluorophenylamino)-7-methoxyquinazolin-6-yloxy)hexyl)-N-hydroxyacetamide] | > 10000 | 
25 | C[C@@H](Nc1ncnc2ccc(OCCCCCC(=O)NO)cc12)c1ccccc1 [Compound 50] | 100 to 1000 | 
26 | COc1cc2ncnc(NCc3ccc(F)cc3)c2cc1OCCCCCCC(=O)NO [Compound 86, 7-(4-(4-fluorobenzylamino)-7-methoxyquinazolin-6-yloxy)-N-hydroxyheptanamide] | < 100 | 
27 | C#Cc1cccc(Nc2ncnc3cc(OC)c(OCCCC(=O)NO)cc23)c1 [Compound 9, 4-(4-(3-ethynylphenylamino)-7-methoxyquinazolin-6-yloxy)-N-hydroxybutanamide] | 100 to 1000 | 
28 | COc1cc2ncnc(Nc3ccc(F)c(Cl)c3)c2cc1OCCNCc1ccc(C(=O)NO)cc1 [Compound 107] | 100 to 1000 | 
29 | C#Cc1cccc(Nc2ncnc3cc(OCCOC)c(OCCCCCCC(=O)NO)cc23)c1 [Compound 36, 7-(4-(3-Ethynylphenylamino)-7-(2-methoxyethoxy)quinazolin-6-yloxy)-N-hydroxyheptanamide] | < 100 | 

The remaining lines, values ahead:

Row | IC50 [1] [nM] | IC50 [2] [nM] | Structure (SMILES)
30 | 100 to 1000 |  | COc1cc2ncnc(Nc3ccc(F)c(Cl)c3)c2cc1CCCCC(=O)NO [Compound 144, 5-(4-(3-chloro-4-fluorophenylamino)-7-methoxyquinazolin-6-yl)-N-hydroxypentanamide]
31 | > 10000 |  | COc1cc2ncnc(Nc3ccc(F)c(Cl)c3)c2cc1OCCC(=O)NO [Compound 2]
32 | 1000 to 10000 |  | COc1cc2ncnc(Nc3ccc(F)c(Cl)c3)c2cc1NC(=O)Nc1ccc(C(=O)NO)cc1 [Compound 93]
33 | 100 to 1000 |  | C#Cc1cccc(Nc2ncnc3cc(OC)c(OCCCCC(=O)NO)cc23)c1 [Compound 10, 5-(4-(3-Ethynylphenylamino)-7-methoxyquinazolin-6-yloxy)-N-hydroxypentanamide]
34 | < 100 |  | C#Cc1cccc(CNc2ncnc3cc(OC)c(OCCCCCCC(=O)NO)cc23)c1 [Compound 90, 7-(4-(3-ethynylbenzylamino)-7-methoxyquinazolin-6-yloxy)-N-hydroxyheptanamide]
35 | > 10000 |  | O=C(COc1ccc2ncnc(Nc3ccc(F)c(Cl)c3)c2c1)NO [Compound 13, 2-(4-(3-chloro-4-fluorophenylamino)quinazolin-6-yloxy)-N-hydroxyacetamide]
36 | > 10000 |  | COc1cc2ncnc(Nc3ccc(F)c(Cl)c3)c2cc1OCCCCCCC(=O)N(C)O [Compound 94]
37 | < 100 |  | COc1cc2ncnc(NCCc3ccccc3)c2cc1OCCCCCCC(=O)NO [Compound 84]
38 | > 10000 |  | C#Cc1cccc(Nc2ncnc3cc(OC)c(OCCC(=O)NO)cc23)c1 [Compound 8]
39 | < 100 |  | COc1cc2ncnc(NCc3ccc(F)c(F)c3)c2cc1OCCCCCCC(=O)NO [Compound 87, 7-(4-(3,4-difluorobenzylamino)-7-methoxyquinazolin-6-yloxy)-N-hydroxyheptanamide]
40 | 1000 to 10000 |  | COc1cc2ncnc(Nc3ccc(F)c(Cl)c3)c2cc1OCCOc1ccc(CC(=O)NO)cc1 [Compound 91]
41 | < 100 |  | O=C(CCCCCOc1ccc2ncnc(Nc3ccc(F)c(Cl)c3)c2c1)NO [Compound 17, 6-(4-(3-Chloro-4-fluorophenylamino)quinazolin-6-yloxy)-N-hydroxyhexanamide]
42 | 100 to 1000 |  | COCCOc1cc2ncnc(Nc3ccc(F)c(Cl)c3)c2cc1NC(=O)CCCCC(=O)NO [Compound 69, N^1-(4-(3-chloro-4-fluorophenylamino)-7-(2-methoxyethoxy)quinazolin-6-yl)-N^6-hydroxyadipamide]
43 | < 100 |  | C#Cc1cccc(Nc2ncnc3ccc(OCCCCC(=O)NO)cc23)c1 [Compound 22]
44 | > 10000 |  | COc1cc2ncnc(Nc3ccc(F)c(Cl)c3)c2cc1OCCCC(=O)NO [Compound 3, 4-(4-(3-Chloro-4-fluorophenylamino)-7-methoxyquinazolin-6-yloxy)-N-hydroxybutanamide]
45 | < 100 |  | COc1cc2ncnc(N[C@@H](C)c3ccccc3)c2cc1OCCCCCCC(=O)NO [Compound 80, (S)—N-hydroxy-7-(7-methoxy-4-(1-phenylethylamino)quinazolin-6-yloxy)heptanamide]
46 | 100 to 1000 |  | O=C(/C=C/c1ccc(OCCOc2ccc3ncnc(Nc4ccc(F)c(Cl)c4)c3c2)cc1)NO [Compound 63]
47 | 100 to 1000 |  | COc1cc2ncnc(Nc3ccc(F)c(Cl)c3)c2cc1OCCCCC(=O)NO [Compound 4]
